pIC50: −log10 of the molar value. Converted amounts (≈) assume the structure as drawn.
Assays:
P. aeruginosa (PA) = experiment: MIC by microdilution, 36 clinical and laboratory strains with known efflux phenotype; format: cell-based
Description: MICs of 36 clinical and laboratory strains of PA with known efflux phenotype are measured by microdilution in cation-adjusted Muller-Hinton broth (CA-MHB) or in RPMI medium (commonly used in eukaryotic cell culture). Phe-Arg-β-naphthylamide (PaβN, 50 mg/L) and EGTA 5 mM are used to inhibit efflux pumps and alter OM integrity, respectively. P. aeruginosa strain ATCC PAO1 is used as reference. PA12 is a clinical strain overexpressing the 4 main efflux systems (MexAB, MexCD, MexEF, MexXY), PA403 is a laboratory strain deleted in the genes coding for the 4 efflux systems. A series of reference strains or of clinical isolates for which the expression of genes coding for efflux pumps is known is also used for MICs determinations. MICs are measured by microdilution in MH broth or in RPMI medium (used for eukaryotic cells culture) supplemented with 10% of fetal calf serum, or in MH broth supplemented by increasing amounts of serum. EGTA (5 mM) was used as a chelating agent (disrupting outer membrane integrity) and PaβN (50 mg/L) as an unspecific efflux inhibitor.

MMP9 activity = experiment: PMA-induced MMP9 activation in U937 cells (gelatin zymography); format: cell-based, human
Description: Effects of macrolides on phorbol 12-myristate 13-acetate (PMA)-induced MMP9 activation in U937 cells. […] After 48 h supernatants were collected for zymography. MMP9 enzyme activity was measured by gelatin zymography. Data are expressed relative to standard.
(§1) The human monocytic cell line U937 was obtained from the American Type Culture Collection (ATCC, Rockville, Md.). PBMCs from COPD patients were obtained from Brompton hospital and separated by AccuSPIN (Sigma-Aldrich). Cells were cultured in complete growth medium (RPMI 1640) (Sigma-Aldrich) supplemented with 10% fetal bovine serum (FBS) and 1% L-glutamine at 37° C. in a humidified atmosphere with 5% CO2. U937 cells were differentiated into adherent macrophage-like morphology by exposure to PMA (50 ng/mL) for 48 hrs in complete growth medium. Cell viability was assessed microscopically by trypan blue staining. Cell toxicity was determined by MTT assay as needed. This study was approved by the ethics committee of the Royal Brompton Hospitals, and all subjects gave written informed consent.
MMP9 enzyme activity was measured by gelatin zymography. Cell culture supernatants were diluted with equal amount of Laemli sample buffer (Bio-Rad, Hertfordshire, UK) and loaded on a Novex® 10% Zymogram (Gelatin) gel (Invitrogen Ltd, Paisley, UK). After electrophoresis, gels were incubated and rinsed with Novex® zymogram renaturing buffer (Invitrogen) for 30 min at room temperature. The gels were then rinsed in Novex® zymogram developing buffer (Invitrogen) for 30 min at room temperature prior to overnight incubation in the developing buffer at 37° C. After incubation, the gels were stained using a Colloidal Blue Staining Kit (Invitrogen) to visualize the zymogen bands.
(§2) The results were expressed as the mean±SEM. Comparisons of data in two groups were performed using the Student's t test or the Wilcoxon signed rank test. Multiple comparisons were made by one-way ANOVA with post hoc test (Dunnett's) as appropriate. The difference was considered significant at p<0.05. IC50 values (50% inhibitory concentration) for macrolides for production of cytokines or MMP9 were calculated using Prism 4.0 (GraphPad Software Inc., San Diego, Calif.).

TNFα release = experiment: LPS-induced TNFα release in PMA-differentiated U937 cells (ELISA); format: cell-based, human
Description: Effects of macrolides on lipopolysaccharide (LPS)-induced TNFα release in PMA-differentiated U937 cells. […] LPS-induced TNFα release was evaluated by ELISA. Values represent means of three experiments±SEM. ^##p<0.01 (vs. non-treatment control), *p<0.05, **p<0.01 (vs. treatment with LPS only).
as §1
TNFα and IL-8 concentrations in the supernatant of cell cultures were determined by sandwich ELISA according to the manufacturer's instructions (R&D Systems Europe, Abingdon, UK).
as §2

Compound: CC[C@H]1OC(=O)[C@H](C)[C@@H](O[C@H]2C[C@@](C)(OC)[C@@H](O)[C@H](C)O2)[C@H](C)[C@@H](O[C@@H]2O[C@H](C)C[C@H](N(C)C)[C@H]2O)[C@](C)(O)C[C@@H](C)CN(C)[C@H](C)[C@@H](O)[C@]1(C)O [AZM, azithromycin]
- MIC (P. aeruginosa (PA); strain 1, efflux AB+, MHB): 128 µg/mL (≈ 171 µM)
- MIC (P. aeruginosa (PA); strain 1, efflux AB+, RPMI): 4 µg/mL (≈ 5.34 µM)
- MIC (P. aeruginosa (PA); strain 2, efflux CD+, MHB): 512 µg/mL (≈ 684 µM)
- MIC (P. aeruginosa (PA); strain 2, efflux CD+, RPMI): 4 µg/mL (≈ 5.34 µM)
- MIC (P. aeruginosa (PA); strain 3, efflux EF+, MHB): 64 µg/mL (≈ 85.4 µM)
- MIC (P. aeruginosa (PA); strain 3, efflux EF+, RPMI): 2 µg/mL (≈ 2.67 µM)
- MIC (P. aeruginosa (PA); strain 4, efflux XY+, MHB): 256 µg/mL (≈ 342 µM)
- MIC (P. aeruginosa (PA); strain 4, efflux XY+, RPMI): 2 µg/mL (≈ 2.67 µM)
- MIC (P. aeruginosa (PA); strain 11, efflux AB + CD+, MHB): 128 µg/mL
- MIC (P. aeruginosa (PA); strain 11, efflux AB + CD+, RPMI): 2 µg/mL
- MIC (P. aeruginosa (PA); strain 12, efflux AB + CD + EF + XY+, MHB): 256 µg/mL
- MIC (P. aeruginosa (PA); strain 12, efflux AB + CD + EF + XY+, RPMI): 2 µg/mL
- MIC (P. aeruginosa (PA); strain 16, efflux AB + XY+, MHB): 256 µg/mL
- MIC (P. aeruginosa (PA); strain 16, efflux AB + XY+, RPMI): 4 µg/mL
- MIC (P. aeruginosa (PA); strain 21, efflux AB+, MHB): 256 µg/mL (≈ 342 µM)
- MIC (P. aeruginosa (PA); strain 21, efflux AB+, RPMI): 2 µg/mL (≈ 2.67 µM)
- MIC (P. aeruginosa (PA); strain 22, efflux XY+, MHB): 256 µg/mL (≈ 342 µM)
- MIC (P. aeruginosa (PA); strain 22, efflux XY+, RPMI): 2 µg/mL (≈ 2.67 µM)
- MIC (P. aeruginosa (PA); strain 40, efflux EF+, MHB): 256 µg/mL (≈ 342 µM)
- MIC (P. aeruginosa (PA); strain 40, efflux EF+, RPMI): 2 µg/mL (≈ 2.67 µM)
- MIC (P. aeruginosa (PA); strain 41, efflux CD+, MHB): 256 µg/mL (≈ 342 µM)
- MIC (P. aeruginosa (PA); strain 41, efflux CD+, RPMI): 2 µg/mL (≈ 2.67 µM)
- MIC (P. aeruginosa (PA); strain 48, efflux CD + EF + XY+, MHB): 256 µg/mL
- MIC (P. aeruginosa (PA); strain 48, efflux CD + EF + XY+, RPMI): 2 µg/mL
- MIC (P. aeruginosa (PA); strain 49, efflux CD + EF + XY+, MHB): 256 µg/mL
- MIC (P. aeruginosa (PA); strain 49, efflux CD + EF + XY+, RPMI): 2 µg/mL
- MIC (P. aeruginosa (PA); strain 63, efflux AB + EF + XY+, MHB): 256 µg/mL
- MIC (P. aeruginosa (PA); strain 63, efflux AB + EF + XY+, RPMI): 2 µg/mL
- MIC (P. aeruginosa (PA); strain 68, efflux AB + XY+, MHB): 256 µg/mL
- MIC (P. aeruginosa (PA); strain 68, efflux AB + XY+, RPMI): 2 µg/mL
- MIC (P. aeruginosa (PA); strain 133, efflux EF + XY+, MHB): 256 µg/mL
- MIC (P. aeruginosa (PA); strain 133, efflux EF + XY+, RPMI): 4 µg/mL
- MIC (P. aeruginosa (PA); strain 156, efflux EF + XY+, MHB): 512 µg/mL
- MIC (P. aeruginosa (PA); strain 156, efflux EF + XY+, RPMI): 4 µg/mL
- MIC (P. aeruginosa (PA); strain 168B, efflux CD + XY+, MHB): 512 µg/mL
- MIC (P. aeruginosa (PA); strain 168B, efflux CD + XY+, RPMI): 4 µg/mL
- MIC (P. aeruginosa (PA); strain 207, efflux AB + EF + XY+, MHB): 512 µg/mL
- MIC (P. aeruginosa (PA); strain 207, efflux AB + EF + XY+, RPMI): 4 µg/mL
- MIC (P. aeruginosa (PA); strain 266B, efflux AB + CD+, MHB): 256 µg/mL
- MIC (P. aeruginosa (PA); strain 266B, efflux AB + CD+, RPMI): 2 µg/mL
- MIC (P. aeruginosa (PA); strain 333A, efflux AB + EF+, MHB): 256 µg/mL
- MIC (P. aeruginosa (PA); strain 333A, efflux AB + EF+, RPMI): 2 µg/mL
- MIC (P. aeruginosa (PA); strain 335, efflux AB + EF+, MHB): 512 µg/mL
- MIC (P. aeruginosa (PA); strain 335, efflux AB + EF+, RPMI): 4 µg/mL
- MIC (P. aeruginosa (PA); strain 391, efflux EF−, MHB): 128 µg/mL (≈ 171 µM)
- MIC (P. aeruginosa (PA); strain 391, efflux EF−, RPMI): 2 µg/mL (≈ 2.67 µM)
- MIC (P. aeruginosa (PA); strain 392, efflux CD−, MHB): 128 µg/mL (≈ 171 µM)
- MIC (P. aeruginosa (PA); strain 392, efflux CD−, RPMI): 2 µg/mL (≈ 2.67 µM)
- MIC (P. aeruginosa (PA); strain 394, efflux XY−, MHB): 256 µg/mL (≈ 342 µM)
- MIC (P. aeruginosa (PA); strain 394, efflux XY−, RPMI): 4 µg/mL (≈ 5.34 µM)
- MIC (P. aeruginosa (PA); strain 395, efflux HI−, MHB): 128 µg/mL (≈ 171 µM)
- MIC (P. aeruginosa (PA); strain 395, efflux HI−, RPMI): 2 µg/mL (≈ 2.67 µM)
- MIC (P. aeruginosa (PA); strain 396, ompH−, MHB): 64 µg/mL (≈ 85.4 µM)
- MIC (P. aeruginosa (PA); strain 396, ompH−, RPMI): 2 µg/mL (≈ 2.67 µM)
- MIC (P. aeruginosa (PA); strain 397, efflux AB−, MHB): 8 µg/mL (≈ 10.7 µM)
- MIC (P. aeruginosa (PA); strain 397, efflux AB−, RPMI): 1 µg/mL (≈ 1.34 µM)
- MIC (P. aeruginosa (PA); strain 398, efflux CD−, MHB): 16 µg/mL (≈ 21.4 µM)
- MIC (P. aeruginosa (PA); strain 398, efflux CD−, RPMI): 1 µg/mL (≈ 1.34 µM)
- MIC (P. aeruginosa (PA); strain 399, efflux AB − EF−, MHB): 16 µg/mL (≈ 21.4 µM)
- MIC (P. aeruginosa (PA); strain 399, efflux AB − EF−, RPMI): 2 µg/mL (≈ 2.67 µM)
- MIC (P. aeruginosa (PA); strain 400, efflux XY−, MHB): 8 µg/mL (≈ 10.7 µM)
- MIC (P. aeruginosa (PA); strain 400, efflux XY−, RPMI): 2 µg/mL (≈ 2.67 µM)
- MIC (P. aeruginosa (PA); strain 401, ompH−, MHB): 8 µg/mL (≈ 10.7 µM)
- MIC (P. aeruginosa (PA); strain 401, ompH−, RPMI): 2 µg/mL (≈ 2.67 µM)
- MIC (P. aeruginosa (PA); strain 403, efflux AB − CD − EF − XY−, MHB): 8 µg/mL (≈ 10.7 µM)
- MIC (P. aeruginosa (PA); strain 403, efflux AB − CD − EF − XY−, RPMI): 2 µg/mL (≈ 2.67 µM)
- MIC (P. aeruginosa (PA); strain 405, efflux AB − CD − EF − XY−, MHB): 8 µg/mL (≈ 10.7 µM)
- MIC (P. aeruginosa (PA); strain 405, efflux AB − CD − EF − XY−, RPMI): 2 µg/mL (≈ 2.67 µM)
- MIC (P. aeruginosa (PA); strain 434, efflux AB + CD + XY+, MHB): 512 µg/mL
- MIC (P. aeruginosa (PA); strain 434, efflux AB + CD + XY+, RPMI): 4 µg/mL
- MIC (P. aeruginosa (PA); strain PAO1, REFERENCE, MHB): 256 µg/mL (≈ 342 µM)
- MIC (P. aeruginosa (PA); strain PAO1, REFERENCE, RPMI): 4 µg/mL (≈ 5.34 µM)
- inhibitory effect on MMP9 activity, lower than CEM-101 (MMP9 activity): 10 fold
- pIC50 (MMP9 activity; Homo sapiens, U-937, read-out: IC50, PMA-induced MMP9 activation): 3.67
- effect on TNFα production (TNFα release; 33 to 333 μM (FIG. 3)): did not inhibit
- pIC50 (TNFα release; Homo sapiens, U-937, U937 cells, at 333 μM, read-out: IC50, LPS-induced TNFα release: NE at 333 μM): < 3.48

— patent publication US9861616B2, “Methods for treating respiratory diseases and formulations therefor” (priority 2013, dated 2018)
